From ChEMBL document CHEMBL1158818, “Alkaloids from the sponge Monanchora unguifera” (J Nat Prod, 2005)

What was measured:
Type in all cases: functional, cell-based
P388 = assay: Cytotoxicity against mouse P388 cells
A549 = assay: Cytotoxicity against human A549 cells
HT-29 = assay: Cytotoxicity against human HT-29 cells
SK-MEL-28 = assay: Cytotoxicity against human SK-MEL-28 cells
DU-145 = assay: Cytotoxicity against human DU145 cells

Measured: IC50

CCCCCCC[C@@H]1C[C@@H]2CCC3=C(C(=O)OCCCCCCC[C@@H]4C[C@@H]5CCC6=C(C(=O)OCCCCNC(=N)N)C(C)N=C(N4)N65)C(C)N=C(N1)N32 (stereo not given in full) [BATZELLADINE J]
> 1 µg/mL: P388 | A549 | HT-29 | SK-MEL-28 | DU-145
